In patent US20150023883A1, “Antiperspirant Spray Devices and Compositions” (The Procter & Gamble Company, priority 2013, published 2015):

Source text: (§1) Solubility may be determined by measuring the amount of light transmittance (a light transmittance value) through a simple mixture of the non-volatile silicone fluid and liquid activation enhancer at the same weight/weight concentrations as in a final antiperspirant composition.
as §1, with “Solubility of a liquid activation enhancer in a non-volatile silicone” for “Solubility”, “(light” for “(a light”
The Spectronic Genesys 10 Vis utilizes a tungsten-halogen light source and has a spectral bandwidth of 5 nm, a wavelength range of 325 to 1100 nm, accuracy of ±1 nm and a repeatability of ±0.5 nm. Readouts include absorbance, transmittance and concentration. The spectrophotometer is set to 640 nm wavelength and the percent transmittance mode/readout. Polystyrene spectrometer cuvettes having a 1 cm optical light path and transmittance between ˜340 nm and ˜900 nm are used. One suitable example of a spectrometer cuvette is available from VWR International LLC under Catalog #97000-584 having a 2.5 to 4.5 ml capacity. The spectrophotometer is calibrated according to the manufacturer's instructions using a reference cuvette and composition comprised of just the non-volatile silicone fluid of interest. For example, if the test composition comprises 50 centistoke dimethicone and 15% w/w of isopropyl myristate, then the spectrometer is calibrated using a cuvette containing just 50 centistoke dimethicone. Sample cuvettes are filled sufficiently with a test composition of a non-volatile silicone fluid and liquid activation enhancer so that the light path of the spectrophotometer passes through the test composition in the cuvette. The sample cuvettes are shaken well just prior to taking a light transmittance reading.

light transmittance value | Compound | solubility in 50 centistoke dimethicone
about 100% | CCCCCCCCCCCCCCCCCC(=O)OCCCC [butyl stearate] | –
about 100% | CCCCCCCCCCCCCC(C)C [isohexadecane] | soluble

Second part, the compound before the results:

Compound | light transmittance value | solubility in 50 centistoke dimethicone
CCCCCCCCCCCCCC(=O)OC(C)C [isopropyl myristate] | about 101% | –
CCCCCCCCCCCCCCCC(=O)OC(C)C [isopropyl palmitate] | about 101% | –
CCCCCCCCCCC(CO)CCCCCCCC (centres unmarked) [octyldodecanol] | – | soluble in the 50 centistoke dimethicone at some (lower) concentrations
PPG-14 butyl ether | – | insoluble
mineral oil | – | soluble in 50 centistoke dimethicone at some (lower) concentrations
